Key:
[1] = tested on: rats fed with normal feed (serum cholesterol); test: Blood cholesterol lowering activity in rats fed with normal feed (Experiment 1); type: in vivo, Wistar male rats; settings: dose per once 100 mg/kg, once a day for 7 days
Procedure: It was done by a method similar to that of A. V. Ginocchio et al. (cf. A. V. Ginocchio et al., Arzneim.Forsch./Drug Res., Vol. 30, 2032-2034, 1980).
Wistar male rats (weighing 100-130 g, one group: 6 rats) were administered with a suspension of the test compound in 3 w/v % aqueous gum arabic solution once a day for 7 days. 24 hours after the final administration of the test compound, under light anesthesia with ether, the femoral artery and vein were cut and blood was collected therefrom. The blood was centrifuged at 3,000 r.p.m. for 10 minutes to collect serum. The serum cholesterol was measured by an enzymatic method using an agent for measuring total cholesterol (Determiner® TC "5", manufactured by Kyowa Medex Co., Ltd.) (cf. Charles C. Allain et al., Clin. Chem., Vol. 20, 470-475, 1974).
From the data thus obtained, a mean value (X) of the serum cholesterol level in the group to which no test compound was administered and a mean value (Y) of the serum cholesterol level in the group to which the test compound was administered were calculated, and the significant difference between them was tested (t-test). From the resulting data, the percentage change of serum cholesterol in the test compound-administering group was calculated by the following equation. [formula]

[2] = tested on: mice fed with normal feed (serum cholesterol); test: Blood cholesterol lowering activity in mice fed with normal feed (Experiment 2); type: in vivo, ddY male mice; settings: 7 days; for Serum cholesterol level, mean ± S.E.: *** p < 0.001; for Percentage change of serum cholesterol: vs untreated group
From the text: (2) Test method: It was done by a method similar to that of H. B. Right et al. (cf. H. B. Right et al., J. Med. Chem., Vol. 7, 113-115, 1964). ddY male mice (weighing 21-23 g, one group: 10 mice) were fed with a mixture of the test compound with powdery feed CE-2 (manufactured by CLEA JAPAN INC.) for 7 days. When the mice fed with the feed mixed with the test compound (test compound-administering group) and the mice fed with the feed mixed with no test compound (no test compound-administering group) were compared as to the feed uptake amount and body weight, there was observed no difference between two groups. After feeding for 7 days, under light anesthesia with ether, the femoral artery and vein were cut and blood was collected therefrom. The blood was centrifuged at 3,000 r.p.m. for 10 minutes to collect serum. The serum cholesterol was measured in the same manner as described in Experiment 1. From the data thus obtained, a mean value (X) of the serum cholesterol level in the no test compound-administering group and a mean value (Y) of the serum cholesterol level in the test compound-administering group were calculated, and the significant difference between them was tested (t-test). From the resulting data, the percentage change of serum cholesterol in the test compound-administering group was calculated by the following equation. [formula]

[3] = tested on: hypercholesterolemic mice (plasma cholesterol); test: Blood cholesterol lowering activity in hypercholesterolemic mice (Experiment 3); type: in vivo, ddY male mice; settings: dose per once 100 mg/kg, orally, three times
From the text: (2) Test method: It was done by a method similar to that described in H. Ozawa, Screening of Pharmaceutical Activities for Development of New Drugs - Recent Movement and Practice, Vol. 1, 84-86, 1984 issued by […] Shoin (Tokyo). ddY male mice (weighing 10 - 12 g, one group: 10 mice) were fed with hypercholesterol feed [prepared by mixing CE-2 Feed (manufactured by CLEA JAPAN INC.) with cholesterol 1 w/w %, cholic acid 0.5 w/w % and sucrose 10 w/w %]. After 7 days from the starting of feeding with the hypercholesterol feed, and thereafter 6 hours and further 24 hours (totally three times), a suspension of the test compound in 3 w/v % aqueous gum arabic solution was orally administered. 3 hours after the final administration of the test compound, blood was collected from orbital vessel with hematocrit capillary (manufactured by TERUMO Corporation, treated with heparin). The blood was centrifuged at 10,000 r.p.m. for 2 minutes to collect blood plasma. The plasma cholesterol was measured in the same manner as described in Experiment 1. From the data thus obtained, a mean value (X) of the plasma cholesterol level in the no test compound-administering group and a mean value (Y) of the plasma cholesterol level in the test compound-administering group were calculated, and the significant difference between them was tested (t-test). From the resulting data, the percentage change of plasma cholesterol in the test compound-administering group was calculated by the following equation. [formula]

[4] = tested on: rats (liver); test: Test of hepatic toxicity in rats, weight of liver (Experiment 4); type: in vivo, Wistar male rats; settings: dose per once 100 mg/kg, orally, once a day for 7 days
Procedure: Wistar male rats (weighing 100-130 g, one group: […]) were orally administered with a suspension of the test compound in 3 w/v % aqueous gum arabic solution once a day for 7 days. 24 hours after the final administration of the test compound, under light anesthesia with ether, the liver was taken out and the weight thereof was measured.
(§1) From the data thus obtained, a mean value (X) of the weight of liver in the no test compound-administering group and a mean value (Y) of the weight of liver in the test compound-administering group were calculated, and the significant difference between them was tested (t-test). From the resulting data, the percentage change of weight of liver in the test compound-administering group was calculated by the following equation. [formula]

[5] = tested on: mice (liver); test: Test of hepatic toxicity in mice, weight of liver (Experiment 5); type: in vivo, ddY male mice; settings: 7 days; for Percentage change of weight of liver: vs untreated group
From the text: ddY male mice (weighing 21-23 g, one group: 10 mice) were fed with a mixture of the test compound with powdery feed CE-2 (manufactured by CLEA JAPAN INC.) for 7 days. When the mice fed with the feed mixed with the test compound (test compound-administering group) and the mice fed with the feed mixed with no test compound (no test compound-administering group) were compared as to the feed uptake amount and body weight, there was observed no difference between two groups. After feeding for 7 days, under light anesthesia with ether, the liver was taken out, and the weight thereof was measured.
as §1

[6] = Test of acute toxicity (LD50) in mice (Experiment 6); type: in vivo; settings: mouse, in vivo, po, orally, 7 days observation, Weil method
From the text: ddY male mice (weighing 20-25 g, one group: 5 mice) were orally administered with a suspension of the test compound in 3 w/v % aqueous gum arabic solution.

[7] = tested on: cholesterol; settings: clinical use; J. K. Reddy et al., Nature, Vol. 283, 397-398, 1980; cited from earlier work
[8] = *** p < 0.001 (compound of this invention)
[9] = conc. of test compd. in feeds 0.025%
[10] = conc. of test compd. in feeds 0.05%
[11] = conc. of test compd. in feeds 0.1%

Structure (SMILES) | Serum cholesterol level, mean ± S.E. [1, 8] | Percentage change of serum cholesterol ([1]; vs untreated group) | Serum cholesterol level, mean ± S.E. [2, 9] | Percentage change of serum cholesterol [2, 9] | Serum cholesterol level, mean ± S.E. [2, 10] | Percentage change of serum cholesterol [2, 10] | Serum cholesterol level, mean ± S.E. [2, 11] | Percentage change of serum cholesterol [2, 11] | Plasma cholesterol level, mean ± S.E. [3, 8] | Percentage change of plasma cholesterol ([3]; vs untreated group) | Weight of liver, mean ± S.E. [4] | Percentage change of weight of liver ([4]; vs untreated group) | Weight of liver, mean ± S.E. [5, 9] | Percentage change of weight of liver [5, 9] | Weight of liver, mean ± S.E. ([5]; conc. of test compd. in feeds 0.05%, ** p < 0.01 (reference compound)) | Percentage change of weight of liver [5, 10] | Weight of liver, mean ± S.E. ([5]; conc. of test compd. in feeds 0.1%, * p < 0.05 (reference compound)) | Percentage change of weight of liver [5, 11] | LD50 at 168 h [6] | side effect [7]
CC(C)(Sc1cc(C(C)(C)C)c(O)c(C(C)(C)C)c1)Sc1cc(C(C)(C)C)c(O)c(C(C)(C)C)c1 [Reference compound, reference compound] | 70.8 ± 2.0 mg/dL | -0.1% | 121.7 ± 3.1 mg/dL | -19.0% | 104.8 ± 4.4 mg/dL | -30.2% | 84.4 ± 5.4 mg/dL | -43.8% | 386.2 ± 10.5 mg/dL | -13.4% | 4.68 ± 0.09 g/100 g of body weight | -4.7% | 6.66 ± 0.22 g/100 g of body weight | +4.9% | 7.11 ± 0.13 g/100 g of body weight | +12.0% | 7.03 ± 0.09 g/100 g of body weight | +10.7% | > 5000 mg/kg | 
CCOC(=O)C(C)(C)Oc1ccc(Cl)cc1 [clofibrate, ethyl p-chlorophenoxyisobutyrate] |  |  |  |  |  |  |  |  |  |  |  |  |  |  |  |  |  |  |  | hepatic toxicity

— patent publication US4742062A, “Benzylpiperazine compound and pharmaceutical composition as hypolipidemic agent” (Kanebo, Ltd., priority 1985, dated 1988)
